How the values were obtained:
rat [1] = conditions: Carcinogenicity, fischer, Oral, Feed, dose end: 100 week, group: systemic
mouse = conditions: Carcinogenicity; b6c3f1; Oral; Feed; dose end: 101 week; group: systemic; systemic / in life observation / body weight / body weight + systemic / pathology microscopic / urinary bladder / inflammation
rat [2] = conditions: Subchronic oral toxicity in rodents, fischer, Feed, dose end: 11 week, group: systemic, systemic / in life observation / body weight / body weight
rabbit = conditions: Subchronic dermal toxicity, new zealand white, Topical, dose end: 13 week, group: systemic, systemic / in life observation / clinical signs / erythema + systemic / pathology gross / skin / [other] + systemic / pathology microscopic…
[3] = systemic / in life observation / body weight / body weight + systemic / pathology gross / eye / opacity

Row | Structure (SMILES) | LEL (rat [1]; [3]) | NEL (rat [1]; [3]) | LOAEL (rat [1]; systemic / pathology microscopic / urinary bladder / hyperplasia) | NOAEL (rat [1]; systemic / pathology microscopic / urinary bladder / hyperplasia + systemic / in life observation / body weight / body weight + systemic / …) | LEL (mouse) | LOAEL (mouse) | NEL (mouse) | NOAEL (mouse) | LEL (rat [2]) | LOAEL (rat [2]) | NOAEL (rabbit)
1 | O=NN(c1ccccc1)c1ccccc1 [N-Nitrosodiphenylamine] | 50 mg/kg/day | < 50 mg/kg/day | 200 mg/kg/day | 50 mg/kg/day | 347 mg/kg/day | 347 mg/kg/day | < 347 mg/kg/day | < 347 mg/kg/day | 200 mg/kg/day | 200 mg/kg/day | 
2 | O=C([O-])c1ccc2ccccc2c1.O=C([O-])c1ccc2ccccc2c1.[Zn+2] [Zinc naphthenate] |  |  |  |  |  |  |  |  |  |  | < 100 mg/kg/day

Source: EPA's ToxRefDB 2
